Assay results from patent publication US6160020A, “Alkali metal and alkaline-earth metal salts of acetaminophen” (priority 1998, dated 2000).
Converted amounts (≈) assume the structure as drawn. Where a name gives a salt, the structure may show the parent alone. Read-outs that look alike come from different tables or passages of the source.

Assays:
[1] = cited from earlier work
[2] = aqueous solubility at 22° C.; format: physicochemical; conditions: for solubility equivalent of APAP free acid: expressed as APAP free acid, approximately
Experimental: Accordingly, the sodium, lithium and calcium salts have solubilities equivalent to approximately 260-280, 250-270, and 10 mg/mL, respectively, of APAP free acid.

[3] = dissolution of APAP form (powder) in 0.1N hydrochloric acid, USP Dissolution Apparatus 2; format: physicochemical; conditions: paddle 50 rpm, 37° C.
Experimental: In 0.1N hydrochloric acid using USP Dissolution Apparatus 2 (paddle speed: 50 rpm) at 37° C., the concentration of acetaminophen at 30 seconds was as follows: […]

in vivo = assay: in vivo; parameters: species or system dog (male purebred beagles); conditions: dog, po
Experimental: A study was conducted in dogs to determine the bioavailability of acetaminophen sodium. The free acid form of acetaminophen was used as the control. Compressed cylindrical pellets having the following composition were prepared:
Acetaminophen Sodium--compressed neat (no excipients). Control--150 mg APAP, 30 mg microcrystalline cellulose, and 30 mg dextrates.
Eight male purebred beagles having a body weight at initial dosing of approximately 9 to 14 kg were used in the study. The dogs were fed PMI® Certified Canine Diet Meal No. 5007 and water, both ab libitum. The dogs were fasted overnight for approximately 12 hours prior to dosing and food was returned 4 hours after dosing.
The dogs were divided into two groups and each group was dosed with either acetaminophen sodium or the control (free acid APAP) pellets. A single dose equivalent to 300 mg of acetaminophen free acid was administered via an oral gavage using a stomach tube. Each dose was followed by 20 mL of water. After a period of one week, the each group was dosed again, but with the other form of acetaminophen. Twelve blood samples were collected form each dog on each dosing day (1 prior to dosing and 11 thereafter). The plasma was separated and tested for acetaminophen.

[4] = stability of anionic form of APAP in aqueous solution; format: physicochemical; conditions: pH>11
Experimental: The lack of discussion on APAP salts in the scientific literature may be due in part to the fact that the anionic form of APAP is stable in aqueous solution (pH>11) for only a short period of time (<24 h). If the salt is not quickly isolated after formation, p-aminophenolate (PAP) can form and result in discoloration of the resulting product.

Question: With `CC(=O)Nc1ccc(OC(=O)CN)cc1` [APG-HBr, p-acetamidophenyl glycinate] as the compound, how does the “water solubility, fold more soluble than acetaminophen” value ([1]; relative to acetaminophen) read?
Answer: five

Question: With `CC(=O)Nc1ccc(OC(=O)CC(N)C(=O)O)cc1` (stereo not drawn) [BAPA-HCl, β-p-acetamidophenyl aspartate] as the compound, how does the “water solubility, fold less soluble than APAP” value ([1]; relative to APAP) read?
Answer: four

Question: Which results are given for `CC(=O)Nc1ccc(O)cc1` [Calcium Salt, acetaminophen calcium]?
Answer: aqueous solubility [2]: 13 mg/mL; solubility equivalent of APAP free acid [2]: ~10 mg/mL; concentration of acetaminophen at 30 seconds [3]: 0.20 Mg/mL of APAP

Question: Which “concentration of acetaminophen at 30 seconds” value (“concentration of acetaminophen” for short) [3] does the source give for `CC(=O)Nc1ccc(O)cc1` [Free Acid, acetaminophen] here?
Answer: 0.02 Mg/mL of APAP

Question: For `CC(=O)Nc1ccc(O)cc1` [I, acetaminophen sodium (C8 H8 NO2 Na.6H2 O)], which aqueous solubility [2] is on record?
Answer: 493 mg/mL

Question: Which aqueous solubility [2] does the source give for `CC(=O)Nc1ccc(O)cc1` [II, acetaminophen sodium (C8 H8 NO2 Na.7H2 O)] here?
Answer: 541 mg/mL

Question: Which aqueous solubility [2] does the source give for `CC(=O)Nc1ccc(O)cc1` [III, acetaminophen calcium (C16 H16 N2 O4 Ca.2H2 O)] here?
Answer: 13 mg/mL

Question: For `CC(=O)Nc1ccc(O)cc1` [IV, acetaminophen lithium (C8 H8 NO2 Li.6H2 O)], which aqueous solubility [2] is on record?
Answer: 455 mg/mL (≈ 3010 mM)

Question: What about the aqueous solubility ([2]; listed as Example V) of the same compound?
Answer: 472 mg/mL (≈ 3120 mM)

Question: Which “solubility equivalent of APAP free acid” value [2] does the source give for `CC(=O)Nc1ccc(O)cc1` [Lithium Salt, acetaminophen lithium] here?
Answer: 250 to 270 mg/mL

Question: What about the “concentration of acetaminophen” value [3] of the same compound?
Answer: 0.32 Mg/mL of APAP

Question: With `CC(=O)Nc1ccc(O)cc1` [Sodium Salt, acetaminophen sodium] as the compound, how does the “solubility equivalent of APAP free acid” value [2] read?
Answer: 260 to 280 mg/mL

Question: What about the Tmax (in vivo) of the same compound?
Answer: 16.2 ± 6 min

Question: And the “concentration of acetaminophen” value [3]?
Answer: 0.30 Mg/mL of APAP

Question: For `CC(=O)Nc1ccc(O)cc1` [anionic form of APAP], which “stability in aqueous solution” value [4] is on record?
Answer: < 24 h
